The text below walks through data of PubChem BioAssay (NCI).

“And” between values parts separate entries of the source, which are not always exact repeats. Identical values can stand only once.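 Cultured in 96-well plates, cells were exposed to test compound for 48 hours across five concentrations. GI50 marks 50% less growth. The concentration for full growth arrest is given as TGI.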 Bounds are passed on as bounds.

Holding throughout (experiment): DTP human tumour cell line panel, 48 h
The test system of test [1] is TK-10 renal.
The test system of test [2] is HCT-15 colon.
The test system of test [3] is OVCAR-5 ovarian.
The test system of test [4] is NCI-H460 lung.
In test [5] the test system is HCC-2998 colon.
The subject of test [6] is IGROV1 ovarian.
Test [7] deals with UACC-257 melanoma.
Test [8] relates to OVCAR-8 ovarian.
The subject of test [9] is U251 CNS.
Test [10] concerns OVCAR-4 ovarian.
Test [11] relates to UACC-62 melanoma.
Test [12] deals with SF-295 CNS.
In test [13] the test system is SK-OV-3 ovarian.

`O=c1cnn(C/C=C/CP(=O)(O)O)c(=O)[nH]1`: the TGI in test [1], in test [2], in [3], in test [4], in [5] and in test [6] was more than 100 µM each time. The TGI in [7], in test [8] and in test [9] was more than 100 µM each time.

Consider `CC(C)OP(=O)(OC(C)C)c1nn(-c2ccc([N+](=O)[O-])cc2)c(=N)s1`, for which the total growth inhibition concentration (TGI) in test [1], in test [2], in [3], in test [4], in [5] and in test [6] was more than 100 µM throughout. In addition, the TGI in [10], in test [11], in [12], in [7], in test [8] and in [13] was more than 100 µM in each case. Also, the TGI (usually the concentration at which net growth stops) in [9] is more than 100 µM.

For the molecule `CCOC(=O)c1csc(NC(=O)CN2CCCCC2)n1`, the TGI in test [1], in [2], in test [3], in [4], in [5] and in [6] was more than 100 µM in each case. Further, the TGI in test [10], in test [11], in [12], in test [7], in test [8] and in test [13] was more than 100 µM in each case. Further, the TGI in test [9] was more than 100 µM.

In the case of `COC1C(=[N+]=[N-])C(=O)NC(=O)N1C1OC(COC(c2ccccc2)(c2ccccc2)c2ccccc2)C(O)C1O` (centres undefined), the TGI was 36.8 µM in test [2]; 31.7 µM in test [3]; 60.6 µM in test [4]; 32.8 µM in test [5]; 47.5 µM in [6]; 27.8 µM in [10]. The TGI in test [11] worked out at 30.5 µM; in test [12], 37.4 µM; in [8] it was 36.9 µM; in test [13] it was 49.6 µM; in test [9], 35.5 µM.

Turning to `OC12c3ccccc3C1CCCCCCCCCC21OCCCO1` (centres undefined), the TGI in [1], in test [2], in [3], in test [5], in [6] and in test [10] was more than 100 µM throughout. Moreover, the TGI in [11], in test [12], in [7], in test [8] and in test [13] was more than 100 µM in each case.

Consider `COc1cccc(N2C(=O)CSC2c2c[nH]c3ccccc23)c1` (centres undefined), for which the total growth inhibition concentration (TGI) in test [1], in test [2], in test [3], in [4], in test [5] and in [6] was more than 100 µM in each case. Moreover, the TGI in test [10], in [11], in test [12], in [7], in test [8] and in test [13] was more than 100 µM in each case. Moreover, the TGI in test [9] is more than 100 µM.

On to `COC(=O)C1C(O)C(C)C(O)C(C)/C=C\C=C(C)C(=O)Nc2c(C)c(OC(C)=O)c3c(c2O)C(=O)C(C)=C2OCOC(=C23)C(C)=CC(C)(O)C(O)C(C)C1O` (centres undefined), for which the TGI in test [1] was more than 100 µM; in test [2], 50.8 µM and > 100 µM; in test [3] it was more than 100 µM; in test [4] it was more than 100 µM; in [5], more than 100 µM; in [6], more than 100 µM. Besides, the TGI in test [10] is more than 100 µM; in test [11], 37.7 µM and > 100 µM; in test [12] it was more than 100 µM; in test [7] it was 55.7 µM and 62.5 µM; in test [8], 47 µM and > 100 µM; in test [13], more than 100 µM. The TGI in test [9] is more than 100 µM. For the same molecule, the GI50 (in general, the concentration that inhibits growth by half) in test [2] is 19.4 µM and > 100 µM; in test [4], 20.5 µM and > 100 µM; in [5], more than 100 µM; in test [10], > 66.3 µM and 14.6 µM; in [11], 17 µM and > 100 µM; in test [8], 23.6 µM.
